tested on: blackgrass; assay: Test Example 5: herbicidal effect by foliage application, plastic box (Table 20, symbol J); format: in vivo, blackgrass (Alopecurus myosuroides); details: foliage application, AAH 320 g/ha, evaluated three weeks after application
Summary of the method: (§1)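 Plants sown in sterilized diluvial soil and grown 14 days in a greenhouse at 25° C to 30° C, then sprayed on the foliage with the compound's emulsion diluted in water to a predetermined herbicide amount. Injury to weeds and crops scored three weeks after application on a visual rating scale.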

| SMILES | J: blackgrass, herbicidal effect (criteria 0-5) |
| --- | --- |
| Cc1nn(C)c(=O)c(-c2c(-c3ccc(OC(F)F)cc3)sc3ccc(F)cc23)c1OC(=O)c1ccco1 [2-287] | 5 (Herbicidal rate of 90% or more (almost completely withered)) |
| Cc1nn(C)c(=O)c(-c2c(-c3ccc(OC(F)F)cc3)sc3ccc(F)cc23)c1OC(=O)C1CCCO1 (centres unmarked) [2-289] | 4 (Herbicidal rate of 70% or more and less than 90%) |

tested on: Japanese bulrush; assay: Test Example 1: herbicidal activity, application before weed generation under submerged conditions (Table 16, symbol B); format: in vivo, Japanese bulrush (Schoenoplectus juncoides); details: 320 g/ha applied herbicide
Summary of the method: (§2)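 Alluvial soil was flooded to 4 cm depth, weed seeds were sown mixed and 2.5-leaf rice seedlings were transplanted. On sowing day, the compound's emulsion, diluted in water to a set dose, was applied to the water surface. Plants grew at 25–30 °C and were scored 0–5 after three weeks.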

| SMILES | Herbicidal effect on B: Japanese bulrush (grade 0-5) |
| --- | --- |
| Cc1nn(C)c(=O)c(-c2c(-c3ccc(OC(F)F)cc3)sc3ccc(F)cc23)c1OC(=O)c1ccco1 [2-287] | 4 (Herbicidal rate of 70% or more and less than 90%) |
| Cc1nn(C)c(=O)c(-c2c(-c3ccc(OC(F)F)cc3)sc3ccc(F)cc23)c1OC(=O)C1CCCO1 (centres unmarked) [2-289] | 3 (Herbicidal rate of 40% or more and less than 70%) |

tested on: redroot pigweed; assay: Test Example 4: herbicidal effect by soil treatment (Table 19, symbol N); format: in vivo, redroot pigweed (Amaranthus retroflexus); details: amount of applied herbicide 320 g/ha
Summary of the method: (§3)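 Three weeks of greenhouse growth at 25° C. to 30° C. followed a uniform surface spray of water-diluted emulsion at a predetermined herbicide amount. Seeds had been sown beforehand under about 1.5 cm of sterilized diluvial soil. Grading followed criteria set out in an earlier test.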

| SMILES | herbicidal effect on N: redroot pigweed |
| --- | --- |
| Cc1nn(C)c(=O)c(-c2c(-c3ccc(OC(F)F)cc3)sc3ccc(F)cc23)c1OC(=O)c1ccco1 [2-287] | 5 (Herbicidal rate of 90% or more (almost completely withered)) |
| Cc1nn(C)c(=O)c(-c2c(-c3ccc(OC(F)F)cc3)sc3ccc(F)cc23)c1OC(=O)C1CCCO1 (centres unmarked) [2-289] | 5 (Herbicidal rate of 90% or more (almost completely withered)) |

tested on: barnyard grass; assay: Test Example 5: herbicidal effect by foliage application, plastic box (Table 20, symbol H); format: in vivo, barnyard grass (Echinochloa crus-galli); details: foliage application, AAH 320 g/ha, evaluated three weeks after application
Summary of the method: as §1

| SMILES | H: barnyard grass, herbicidal effect (criteria 0-5) |
| --- | --- |
| Cc1nn(C)c(=O)c(-c2c(-c3ccc(OC(F)F)cc3)sc3ccc(F)cc23)c1OC(=O)c1ccco1 [2-287] | 5 (Herbicidal rate of 90% or more (almost completely withered)) |
| Cc1nn(C)c(=O)c(-c2c(-c3ccc(OC(F)F)cc3)sc3ccc(F)cc23)c1OC(=O)C1CCCO1 (centres unmarked) [2-289] | 5 (Herbicidal rate of 90% or more (almost completely withered)) |

tested on: rice flat sedge; assay: Test Example 3: herbicidal effect by foliage application, Wagner pot (Table 18, symbol E); format: in vivo, rice flat sedge (Cyperus iria); details: amount of applied herbicide 320 g/ha
Summary of the method: (§4)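 Plants were sown in alluvial soil held under 0.1–0.5 cm standing water and grown 14 days in a greenhouse at 25–30 °C. An emulsifiable formulation, water-diluted to the set dose, was then sprayed onto the foliage, and effects were scored three weeks later using previously defined criteria.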

| SMILES | herbicidal effect on E: rice flat sedge |
| --- | --- |
| Cc1nn(C)c(=O)c(-c2c(-c3ccc(OC(F)F)cc3)sc3ccc(F)cc23)c1OC(=O)c1ccco1 [2-287] | 5 (Herbicidal rate of 90% or more (almost completely withered)) |
| Cc1nn(C)c(=O)c(-c2c(-c3ccc(OC(F)F)cc3)sc3ccc(F)cc23)c1OC(=O)C1CCCO1 (centres unmarked) [2-289] | 5 (Herbicidal rate of 90% or more (almost completely withered)) |

tested on: wild oat; assay: Test Example 5: herbicidal effect by foliage application, plastic box (Table 20, symbol I); format: in vivo, wild oat (Avena fatua); details: foliage application, AAH 320 g/ha, evaluated three weeks after application
Summary of the method: as §1

| SMILES | I: wild oat, herbicidal effect (criteria 0-5) |
| --- | --- |
| Cc1nn(C)c(=O)c(-c2c(-c3ccc(OC(F)F)cc3)sc3ccc(F)cc23)c1OC(=O)c1ccco1 [2-287] | 3 (Herbicidal rate of 40% or more and less than 70%) |
| Cc1nn(C)c(=O)c(-c2c(-c3ccc(OC(F)F)cc3)sc3ccc(F)cc23)c1OC(=O)C1CCCO1 (centres unmarked) [2-289] | 4 (Herbicidal rate of 70% or more and less than 90%) |

tested on: Chinese sprangletop; assay: Test Example 3: herbicidal effect by foliage application, Wagner pot (Table 18, symbol D); format: in vivo, chinese sprangletop (Leptochloa chinensis); details: amount of applied herbicide 320 g/ha
Summary of the method: as §4

| SMILES | herbicidal effect on D: Chinese sprangletop |
| --- | --- |
| Cc1nn(C)c(=O)c(-c2c(-c3ccc(OC(F)F)cc3)sc3ccc(F)cc23)c1OC(=O)c1ccco1 [2-287] | 3 (Herbicidal rate of 40% or more and less than 70%) |
| Cc1nn(C)c(=O)c(-c2c(-c3ccc(OC(F)F)cc3)sc3ccc(F)cc23)c1OC(=O)C1CCCO1 (centres unmarked) [2-289] | 3 (Herbicidal rate of 40% or more and less than 70%) |

tested on: windgrass; assay: Test Example 4: herbicidal effect by soil treatment (Table 19, symbol L); format: in vivo, windgrass (Apera spica-venti); details: amount of applied herbicide 320 g/ha
Summary of the method: as §3

| SMILES | herbicidal effect on L: windgrass |
| --- | --- |
| Cc1nn(C)c(=O)c(-c2c(-c3ccc(OC(F)F)cc3)sc3ccc(F)cc23)c1OC(=O)c1ccco1 [2-287] | 3 (Herbicidal rate of 40% or more and less than 70%) |
| Cc1nn(C)c(=O)c(-c2c(-c3ccc(OC(F)F)cc3)sc3ccc(F)cc23)c1OC(=O)C1CCCO1 (centres unmarked) [2-289] | 4 (Herbicidal rate of 70% or more and less than 90%) |

tested on: barnyard grass; assay: Test Example 3: herbicidal effect by foliage application, Wagner pot (Table 18, symbol H); format: in vivo, barnyard grass (Echinochloa crus-galli); details: amount of applied herbicide 320 g/ha
Summary of the method: as §4

| SMILES | herbicidal effect on H: barnyard grass |
| --- | --- |
| Cc1nn(C)c(=O)c(-c2c(-c3ccc(OC(F)F)cc3)sc3ccc(F)cc23)c1OC(=O)c1ccco1 [2-287] | 5 (Herbicidal rate of 90% or more (almost completely withered)) |
| Cc1nn(C)c(=O)c(-c2c(-c3ccc(OC(F)F)cc3)sc3ccc(F)cc23)c1OC(=O)C1CCCO1 (centres unmarked) [2-289] | 5 (Herbicidal rate of 90% or more (almost completely withered)) |

tested on: late watergrass; assay: Test Example 1: herbicidal activity, application before weed generation under submerged conditions (Table 16, symbol A); format: in vivo, late watergrass (Echinochloa oryzicola); details: 320 g/ha applied herbicide
Summary of the method: as §2

| SMILES | Herbicidal effect on A: late watergrass (grade 0-5) |
| --- | --- |
| Cc1nn(C)c(=O)c(-c2c(-c3ccc(OC(F)F)cc3)sc3ccc(F)cc23)c1OC(=O)c1ccco1 [2-287] | 5 (Herbicidal rate of 90% or more (almost completely withered)) |
| Cc1nn(C)c(=O)c(-c2c(-c3ccc(OC(F)F)cc3)sc3ccc(F)cc23)c1OC(=O)C1CCCO1 (centres unmarked) [2-289] | 4 (Herbicidal rate of 70% or more and less than 90%) |

tested on: late watergrass; assay: Test Example 2: herbicidal activity, application during weed generation under submerged conditions (Table 17, symbol A); format: in vivo, late watergrass (Echinochloa oryzicola); details: AAH 320 g/ha; application during weed generation, submerged conditions
Summary of the method: (§5)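 In this pot test, flooded alluvial soil (water depth 4 cm) holds all three species sown as a mixture. Once seedlings have one to two leaves, the compound's emulsion, thinned with water to the intended dose, is poured on the water; grading follows after three weeks on the earlier criteria.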

| SMILES | herbicidal effect rating, A: late watergrass |
| --- | --- |
| Cc1nn(C)c(=O)c(-c2c(-c3ccc(OC(F)F)cc3)sc3ccc(F)cc23)c1OC(=O)c1ccco1 [2-287] | 3 (Herbicidal rate of 40% or more and less than 70%) |
| Cc1nn(C)c(=O)c(-c2c(-c3ccc(OC(F)F)cc3)sc3ccc(F)cc23)c1OC(=O)C1CCCO1 (centres unmarked) [2-289] | 3 (Herbicidal rate of 40% or more and less than 70%) |

tested on: Italian ryegrass; assay: Test Example 4: herbicidal effect by soil treatment (Table 19, symbol K); format: in vivo, Italian ryegrass (Lolium multiflorum); details: amount of applied herbicide 320 g/ha
Summary of the method: as §3

| SMILES | herbicidal effect on K: Italian ryegrass |
| --- | --- |
| Cc1nn(C)c(=O)c(-c2c(-c3ccc(OC(F)F)cc3)sc3ccc(F)cc23)c1OC(=O)c1ccco1 [2-287] | 5 (Herbicidal rate of 90% or more (almost completely withered)) |
| Cc1nn(C)c(=O)c(-c2c(-c3ccc(OC(F)F)cc3)sc3ccc(F)cc23)c1OC(=O)C1CCCO1 (centres unmarked) [2-289] | 5 (Herbicidal rate of 90% or more (almost completely withered)) |

tested on: oval-leafed pondweed; assay: Test Example 2: herbicidal activity, application during weed generation under submerged conditions (Table 17, symbol C); format: in vivo, oval-leafed pondweed (Monochoria vaginalis); details: AAH 320 g/ha; application during weed generation, submerged conditions
Summary of the method: as §5

| SMILES | herbicidal effect rating, C: oval-leafed pondweed |
| --- | --- |
| Cc1nn(C)c(=O)c(-c2c(-c3ccc(OC(F)F)cc3)sc3ccc(F)cc23)c1OC(=O)c1ccco1 [2-287] | 4 (Herbicidal rate of 70% or more and less than 90%) |
| Cc1nn(C)c(=O)c(-c2c(-c3ccc(OC(F)F)cc3)sc3ccc(F)cc23)c1OC(=O)C1CCCO1 (centres unmarked) [2-289] | 4 (Herbicidal rate of 70% or more and less than 90%) |

tested on: persian speedwell; assay: Test Example 5: herbicidal effect by foliage application, plastic box (Table 20, symbol R); format: in vivo, Persian speedwell (Veronica persica); details: foliage application, AAH 320 g/ha, evaluated three weeks after application
Summary of the method: as §1

| SMILES | R: persian speedwell, herbicidal effect (criteria 0-5) |
| --- | --- |
| Cc1nn(C)c(=O)c(-c2c(-c3ccc(OC(F)F)cc3)sc3ccc(F)cc23)c1OC(=O)c1ccco1 [2-287] | 5 (Herbicidal rate of 90% or more (almost completely withered)) |
| Cc1nn(C)c(=O)c(-c2c(-c3ccc(OC(F)F)cc3)sc3ccc(F)cc23)c1OC(=O)C1CCCO1 (centres unmarked) [2-289] | 5 (Herbicidal rate of 90% or more (almost completely withered)) |

tested on: southern crabgrass; assay: Test Example 5: herbicidal effect by foliage application, plastic box (Table 20, symbol F); format: in vivo, southern crabgrass (Digitaria ciliaris); details: foliage application, AAH 320 g/ha, evaluated three weeks after application
Summary of the method: as §1

| SMILES | F: southern crabgrass, herbicidal effect (criteria 0-5) |
| --- | --- |
| Cc1nn(C)c(=O)c(-c2c(-c3ccc(OC(F)F)cc3)sc3ccc(F)cc23)c1OC(=O)c1ccco1 [2-287] | 5 (Herbicidal rate of 90% or more (almost completely withered)) |
| Cc1nn(C)c(=O)c(-c2c(-c3ccc(OC(F)F)cc3)sc3ccc(F)cc23)c1OC(=O)C1CCCO1 (centres unmarked) [2-289] | 3 (Herbicidal rate of 40% or more and less than 70%) |

tested on: green foxtail; assay: Test Example 5: herbicidal effect by foliage application, plastic box (Table 20, symbol G); format: in vivo, green foxtail (Setaria viridis); details: foliage application, AAH 320 g/ha, evaluated three weeks after application
Summary of the method: as §1

| SMILES | G: green foxtail, herbicidal effect (criteria 0-5) |
| --- | --- |
| Cc1nn(C)c(=O)c(-c2c(-c3ccc(OC(F)F)cc3)sc3ccc(F)cc23)c1OC(=O)c1ccco1 [2-287] | 5 (Herbicidal rate of 90% or more (almost completely withered)) |
| Cc1nn(C)c(=O)c(-c2c(-c3ccc(OC(F)F)cc3)sc3ccc(F)cc23)c1OC(=O)C1CCCO1 (centres unmarked) [2-289] | 5 (Herbicidal rate of 90% or more (almost completely withered)) |
